Reference: US12077503B2, “Substituted cyclic amides and their use as herbicides” (FMC CORPORATION, priority 2015, dated 2024)

Legend:
Test in all cases: Test F flooded paddy test
Format in all cases: in vivo
Parameters in all cases: key: 0 = no effect, 100 = complete control
Settings in all cases: Flood
[1] = tested on: sedge, umbrella (small-flower umbrella sedge, Cyperus difformis)
Description: (§1) Plant species in the flooded paddy test consisted of one stand of 9 or 10 water seeded rice seedlings (Rice, W. S. Jap, Oryza sativa cv. ‘Japonica—M202’ or Rice, W. S. Ind, ‘Indica’), and two stands of 3 or 4 transplanted rice seedlings (Oryza sativa cv. ‘Japonica—M202’), Monochoria (Monochoria vaginalis), sedge, umbrella (small-flower umbrella sedge, Cyperus difformis), hardstem bulrush (Scirpus juncoides), redstem (purple redstem, Ammannia coccinea), rice flatsedge (Cyperus iria), bearded sprangletop (Leptochloa fascicularis), barnyardgrass (Echinochloa crus-galli), waterplantain (common waterplantain, Alisma plantago-aquatica), and late watergrass (Echinochloa oryzicola) grown to the 2 to 2.5 leaf stage for testing. Potted plants were grown in a greenhouse with day/night temperature settings of 30/27° C., and supplemental balanced lighting was provided to maintain a 16-hour photoperiod. At time of treatment, test pots were flooded to 3 cm above the soil surface, treated by application of test compounds directly to the paddy water, and then maintained at that water depth for the duration of the test. Effects of treatments on rice and weeds were visually evaluated by comparison to untreated controls after 21 d. Plant response ratings, summarized in Table F, are based on a scale of 0 to 100 where 0 is no effect and 100 is complete control. A dash (-) response means no test result.

[2] = tested on: transplanted rice seedlings (Oryza sativa cv. ‘Japonica—M202’)
Description: as §1

[3] = tested on: rice flatsedge (Cyperus iria)
Description: as §1

[4] = tested on: late watergrass (Echinochloa oryzicola)
Description: as §1

[5] = tested on: barnyardgrass (Echinochloa crus-galli)
Description: as §1

[6] = tested on: bearded sprangletop (Leptochloa fascicularis)
Description: as §1

[7] = tested on: water seeded rice seedlings (Rice, W. S. Jap, Oryza sativa cv. ‘Japonica—M202’)
Description: as §1

[8] = tested on: Monochoria (Monochoria vaginalis)
Description: as §1

`Cc1ccc(C2CN(C)C(=O)C2C(=O)Nc2ccccc2F)cc1F` (stereo not shown) [Compound 465] was tested, and the “Plant response rating: Sedge, Umbrella” value ([1]; 32 g ai/ha) was 0, the “Plant response rating: Sedge, Umbrella” value ([1]; 64 g ai/ha) was 0 and the “Plant response rating: Sedge, Umbrella” value ([1]; 125 g ai/ha) was 0. The “Plant response rating: Sedge, Umbrella” value ([1]; 250 g ai/ha) was 0, the “Plant response rating: Rice, Transplanted” value ([2]; 32 g ai/ha) was 0 and the “Plant response rating: Rice, Transplanted” value ([2]; 64 g ai/ha) was 0. The “Plant response rating: Rice, Transplanted” value ([2]; 125 g ai/ha) was 0, the “Plant response rating: Rice, Transplanted” value ([2]; 250 g ai/ha) was 15 and the “Plant response rating: Flatsedge, Rice” value ([3]; 32 g ai/ha) was 0. For the same compound, the “Plant response rating: Flatsedge, Rice” value ([3]; 64 g ai/ha) was 0, the “Plant response rating: Flatsedge, Rice” value ([3]; 125 g ai/ha) was 0 and the “Plant response rating: Flatsedge, Rice” value ([3]; 250 g ai/ha) was 0. For the same compound, the “Plant response rating: Watergrass, Late” value ([4]; 32 g ai/ha) was 85, the “Plant response rating: Watergrass, Late” value ([4]; 64 g ai/ha) was 00 and the “Plant response rating: Watergrass, Late” value ([4]; 125 g ai/ha) was 100. For the same compound, the “Plant response rating: Watergrass, Late” value ([4]; 250 g ai/ha) was 100, the “Plant response rating: Barnyardgrass” value ([5]; 32 g ai/ha) was 100 and the “Plant response rating: Barnyardgrass” value ([5]; 64 g ai/ha) was 100. The “Plant response rating: Barnyardgrass” value ([5]; 125 g ai/ha) was 100, the “Plant response rating: Barnyardgrass” value ([5]; 250 g ai/ha) was 100 and the “Plant response rating: Sprangletop, Brdd.” value ([6]; 32 g ai/ha) was 85. For the same compound, the “Plant response rating: Sprangletop, Brdd.” value ([6]; 64 g ai/ha) was 85, the “Plant response rating: Sprangletop, Brdd.” value ([6]; 125 g ai/ha) was 95 and the “Plant response rating: Sprangletop, Brdd.” value ([6]; 250 g ai/ha) was 95. For the same compound, the “Plant response rating: Rice, Water Seeded” value ([7]; 32 g ai/ha) was 0, the “Plant response rating: Rice, Water Seed.” value ([7]; 64 g ai/ha) was 0 and the “Plant response rating: Rice, Water Seed.” value ([7]; 125 g ai/ha) was 35. For the same compound, the “Plant response rating: Rice, Water Seeded” value ([7]; 250 g ai/ha) was 60, the “Plant response rating: Monochoria” value ([8]; 32 g ai/ha) was 50 and the “Plant response rating: Monochoria” value ([8]; 64 g ai/ha) was 75. For the same compound, the “Plant response rating: Monochoria” value ([8]; 125 g ai/ha) was 100 and the “Plant response rating: Monochoria” value ([8]; 250 g ai/ha) was 100.
For `CN1CC(c2cccc(OC(F)F)c2)C(C(=O)Nc2ccc(F)cc2F)C1=O` (stereo not shown) [Compound 617], the “Plant response rating: Sedge, Umbrella” value ([1]; 32 g ai/ha) was 0, the “Plant response rating: Sedge, Umbrella” value ([1]; 64 g ai/ha) was 0 and the “Plant response rating: Sedge, Umbrella” value ([1]; 125 g ai/ha) was 0. For the same compound, the “Plant response rating: Sedge, Umbrella” value ([1]; 250 g ai/ha) was 0, the “Plant response rating: Rice, Transplanted” value ([2]; 32 g ai/ha) was 0 and the “Plant response rating: Rice, Transplanted” value ([2]; 64 g ai/ha) was 0. For the same compound, the “Plant response rating: Rice, Transplanted” value ([2]; 125 g ai/ha) was 0, the “Plant response rating: Rice, Transplanted” value ([2]; 250 g ai/ha) was 0 and the “Plant response rating: Flatsedge, Rice” value ([3]; 32 g ai/ha) was 0. The “Plant response rating: Flatsedge, Rice” value ([3]; 64 g ai/ha) was 0, the “Plant response rating: Flatsedge, Rice” value ([3]; 125 g ai/ha) was 0 and the “Plant response rating: Flatsedge, Rice” value ([3]; 250 g ai/ha) was 0. The “Plant response rating: Watergrass, Late” value ([4]; 32 g ai/ha) was 100, the “Plant response rating: Watergrass, Late” value ([4]; 64 g ai/ha) was 100 and the “Plant response rating: Watergrass, Late” value ([4]; 125 g ai/ha) was 100. For the same compound, the “Plant response rating: Watergrass, Late” value ([4]; 250 g ai/ha) was 100, the “Plant response rating: Barnyardgrass” value ([5]; 32 g ai/ha) was 60 and the “Plant response rating: Barnyardgrass” value ([5]; 64 g ai/ha) was 85. For the same compound, the “Plant response rating: Barnyardgrass” value ([5]; 125 g ai/ha) was 100, the “Plant response rating: Barnyardgrass” value ([5]; 250 g ai/ha) was 100 and the “Plant response rating: Sprangletop, Brdd.” value ([6]; 32 g ai/ha) was 0. The “Plant response rating: Sprangletop, Brdd.” value ([6]; 64 g ai/ha) was 80, the “Plant response rating: Sprangletop, Brdd.” value ([6]; 125 g ai/ha) was 85 and the “Plant response rating: Sprangletop, Brdd.” value ([6]; 250 g ai/ha) was 90. For the same compound, the “Plant response rating: Rice, Water Seeded” value ([7]; 32 g ai/ha) was 0, the “Plant response rating: Rice, Water Seed.” value ([7]; 64 g ai/ha) was 0 and the “Plant response rating: Rice, Water Seed.” value ([7]; 125 g ai/ha) was 20. The “Plant response rating: Rice, Water Seeded” value ([7]; 250 g ai/ha) was 60, the “Plant response rating: Monochoria” value ([8]; 32 g ai/ha) was 0 and the “Plant response rating: Monochoria” value ([8]; 64 g ai/ha) was 40. The “Plant response rating: Monochoria” value ([8]; 125 g ai/ha) was 70 and the “Plant response rating: Monochoria” value ([8]; 250 g ai/ha) was 100.
